Positions of bridges follow the written chain, without caps; N, C: chain ends. No end group written: not given here.
Experiments:
MRGPRX2 = molecular target: T1, MRGPRX2 (Homo sapiens, UniProt Q96LB1); assay: FLIPR calcium imaging, HEK293 expressing MRGPRX2; type: cell-based; details: SEM
T1 sequence (Q96LB1 1-330): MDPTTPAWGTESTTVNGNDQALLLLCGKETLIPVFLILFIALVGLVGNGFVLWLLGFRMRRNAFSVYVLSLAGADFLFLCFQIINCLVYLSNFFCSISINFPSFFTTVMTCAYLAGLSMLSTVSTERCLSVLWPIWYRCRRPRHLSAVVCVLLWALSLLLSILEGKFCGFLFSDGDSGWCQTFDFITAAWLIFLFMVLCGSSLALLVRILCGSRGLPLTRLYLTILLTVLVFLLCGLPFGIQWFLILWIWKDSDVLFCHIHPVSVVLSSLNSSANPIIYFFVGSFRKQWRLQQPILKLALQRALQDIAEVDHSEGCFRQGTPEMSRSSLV

MRGPRX1 = MRGPRX1 (Homo sapiens, UniProt Q96LB2); assay: FLIPR calcium imaging, HEK293 expressing MRGPRX1; type: cell-based; details: SEM
mice = assay: Itch behavior: scratching bouts after intradermal injection; type: in vivo, mouse; details: for itch-responses (scratching bouts): mice, intradermal injection 1mM, 10μL, versus saline, n=8-12
Mrgpra3-Cre-GFP neurons = assay: Whole-cell patch-clamp recording of Mrgpra3-Cre-GFP neurons; type: cell-based, mouse; details: n=8/8
MRGPRX3 = MRGPRX3 (Homo sapiens, UniProt Q96LB0); assay: FLIPR calcium imaging, HEK293 expressing MRGPRX3; type: cell-based
Mrgprc11 = molecular target: T2, Mrgprc11 (Mus musculus, UniProt Q8CIP3); assay: FLIPR calcium imaging, HEK293 expressing Mrgprc11; type: cell-based
T2 sequence (Q8CIP3 1-322): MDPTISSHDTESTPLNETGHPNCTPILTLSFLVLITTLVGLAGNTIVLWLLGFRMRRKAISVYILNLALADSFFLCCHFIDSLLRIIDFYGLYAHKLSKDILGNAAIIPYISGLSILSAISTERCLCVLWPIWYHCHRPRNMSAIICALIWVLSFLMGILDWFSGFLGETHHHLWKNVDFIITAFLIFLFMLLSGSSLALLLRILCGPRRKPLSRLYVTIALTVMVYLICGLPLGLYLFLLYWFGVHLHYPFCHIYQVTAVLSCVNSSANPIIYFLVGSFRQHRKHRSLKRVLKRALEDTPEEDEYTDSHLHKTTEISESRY

Mrgpra2b = molecular target: T3, Mrgpra2b (Mus musculus, UniProt Q91WW4); assay: FLIPR calcium imaging, HEK293 expressing Mrgpra2b; type: cell-based
T3 sequence (Q91WW4 1-305): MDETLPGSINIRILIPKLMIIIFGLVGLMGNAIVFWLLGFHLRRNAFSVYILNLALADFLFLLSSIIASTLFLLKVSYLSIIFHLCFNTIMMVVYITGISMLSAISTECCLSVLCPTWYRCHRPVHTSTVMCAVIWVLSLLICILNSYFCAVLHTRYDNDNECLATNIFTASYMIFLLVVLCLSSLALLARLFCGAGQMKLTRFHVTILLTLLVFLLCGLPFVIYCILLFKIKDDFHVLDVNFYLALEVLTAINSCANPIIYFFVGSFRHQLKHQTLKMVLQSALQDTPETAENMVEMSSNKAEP

Mrgprb2 = molecular target: T4, Mrgprb2 (Mus musculus, UniProt Q3KNA1); assay: FLIPR calcium imaging, HEK293 expressing Mrgprb2; type: cell-based
T4 sequence (Q3KNA1 1-338): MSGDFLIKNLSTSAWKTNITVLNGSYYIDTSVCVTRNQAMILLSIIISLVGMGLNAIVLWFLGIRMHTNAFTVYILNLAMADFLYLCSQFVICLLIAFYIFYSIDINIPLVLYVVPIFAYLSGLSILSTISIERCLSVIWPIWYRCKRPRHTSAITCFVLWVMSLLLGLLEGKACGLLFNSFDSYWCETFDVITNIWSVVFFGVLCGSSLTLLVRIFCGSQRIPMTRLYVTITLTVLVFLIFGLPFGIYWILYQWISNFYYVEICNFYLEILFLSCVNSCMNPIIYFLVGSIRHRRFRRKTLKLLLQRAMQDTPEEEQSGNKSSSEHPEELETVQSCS

DRG neurons = assay: Calcium imaging of cultured DRG neurons; type: cell-based, mouse; details: 352 neurons imaged
Mrgpra3 = molecular target: T5, Mrgpra3 (Mus musculus, UniProt Q91WW3); assay: FLIPR calcium imaging, HEK293 expressing Mrgpra3; type: cell-based
T5 sequence (Q91WW3 1-302): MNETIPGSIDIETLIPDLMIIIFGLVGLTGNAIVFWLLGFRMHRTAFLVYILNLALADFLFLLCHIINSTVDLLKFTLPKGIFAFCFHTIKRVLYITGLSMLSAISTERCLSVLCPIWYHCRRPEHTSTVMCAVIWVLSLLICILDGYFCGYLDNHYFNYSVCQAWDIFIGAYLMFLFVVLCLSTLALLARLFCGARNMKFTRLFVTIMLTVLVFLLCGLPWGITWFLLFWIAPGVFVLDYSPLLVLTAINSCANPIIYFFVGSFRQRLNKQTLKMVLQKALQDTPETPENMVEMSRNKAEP

Mrgpra1 = molecular target: T6, Mrgpra1 (Mus musculus, UniProt Q91WW5); assay: FLIPR calcium imaging, HEK293 expressing Mrgpra1; type: cell-based; details: SEM
T6 sequence (Q91WW5 1-304): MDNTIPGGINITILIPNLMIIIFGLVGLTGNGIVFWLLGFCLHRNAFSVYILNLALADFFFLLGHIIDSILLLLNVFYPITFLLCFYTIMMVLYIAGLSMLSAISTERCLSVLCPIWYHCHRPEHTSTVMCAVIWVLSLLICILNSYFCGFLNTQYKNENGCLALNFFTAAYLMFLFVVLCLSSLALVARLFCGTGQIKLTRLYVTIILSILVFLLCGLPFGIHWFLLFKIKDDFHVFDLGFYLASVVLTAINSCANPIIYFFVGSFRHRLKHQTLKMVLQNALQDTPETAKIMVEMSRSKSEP

Sequence of MRGPRX1 (Q96LB2 whole entry): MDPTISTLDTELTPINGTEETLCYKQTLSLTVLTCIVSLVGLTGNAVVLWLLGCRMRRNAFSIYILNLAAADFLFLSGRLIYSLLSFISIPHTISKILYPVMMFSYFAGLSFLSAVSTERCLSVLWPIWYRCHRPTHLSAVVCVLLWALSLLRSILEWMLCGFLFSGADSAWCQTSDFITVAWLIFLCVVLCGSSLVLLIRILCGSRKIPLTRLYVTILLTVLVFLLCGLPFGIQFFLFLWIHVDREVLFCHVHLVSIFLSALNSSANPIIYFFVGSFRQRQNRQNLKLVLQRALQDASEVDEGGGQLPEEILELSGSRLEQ
Sequence of MRGPRX3 (Q96LB0 whole entry): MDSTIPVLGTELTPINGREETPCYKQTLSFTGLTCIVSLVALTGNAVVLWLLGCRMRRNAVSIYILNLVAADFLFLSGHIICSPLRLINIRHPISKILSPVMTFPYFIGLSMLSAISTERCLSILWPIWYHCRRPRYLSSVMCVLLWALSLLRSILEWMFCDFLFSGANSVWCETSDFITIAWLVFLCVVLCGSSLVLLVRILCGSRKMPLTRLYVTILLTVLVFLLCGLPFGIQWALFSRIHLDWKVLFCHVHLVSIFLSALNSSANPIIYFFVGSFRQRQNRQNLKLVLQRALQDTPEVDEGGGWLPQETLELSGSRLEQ

Question: Which EC50 (MRGPRX2) does the source give for “GIGDPVTCLKSGAICHPVFCPRRYKQIGTCGLPGTKCCKKP (disulfide 8-37, 15-30, 20-38) [DEFB4]” here?
Answer: 17.5 ± 3.8 µM

Question: What about the EC50 (MRGPRX1) of the same molecule?
Answer: 58.3 ± 18 µM

Question: “Defb1: recombinant mouse β-defensin, constitutively highly expressed in skin (DQYKCLQHGGFCLRSSCPSNTKLQGTCKPDKPNCCKS; ends and bridges not checked; cysteine pairing not given here; UniProt P56386 33-69, looked up)” was tested. Which “itch-responses (scratching bouts)” value (mice) did it give?
Answer: not significantly different from saline injection

Question: With `CCN(CC)CCCC(C)Nc1ccnc2cc(Cl)ccc12` (stereo not drawn) [CQ, chloroquine, reference compound] as the molecule, how does the “action potential discharges in Mrgpra3-Cre-GFP neurons” value (Mrgpra3-Cre-GFP neurons; 100μM) read?
Answer: evoked action potential discharges

Question: With “GIINTLQKYYCRVRGGRCAVLSCLPKEEQIGKCSTRGRKCCRRKK (disulfide 11-40, 18-33, 23-41) [DEFB103]” as the molecule, how does the “activation of LAD2 cells, calcium imaging” value (LAD2 cells; peptide 1μM, compared with DEFB4) read?
Answer: activated more LAD2 cells and evoked stronger calcium influx than the DEFB4

Question: What about the “potency of DEFB103 relative to DEFB4 in LAD2 cells” value (LAD2 cells; ratio of EC50s, LAD2 calcium imaging) of the same molecule?
Answer: about 10 fold

Question: And the EC50 (MRGPRX2)?
Answer: 0.42 ± 0.11 µM

Question: And the EC50 (MRGPRX1)?
Answer: 0.28 ± 0.05 µM

Question: What about the EC50 (MRGPRX3) of the same molecule?
Answer: 7.4 ± 1.9 µM

Question: Which EC50 (Mrgprc11) does the source give for “FLPKTLRKFFCRIRGGRCAVLNCLGKEEQIGRCSNSGRKCCRKKK (disulfide 11-40, 18-33, 23-41) [Defb14]” here?
Answer: 21.6 ± 11.7 µM

Question: And the EC50 (Mrgpra2b)?
Answer: 19.4 ± 8.6 µM

Question: What about the EC50 (Mrgprb2) of the same molecule?
Answer: 1.7 ± 0.45 µM

Question: And the “action potential discharges in Mrgpra3-Cre-GFP neurons” value (Mrgpra3-Cre-GFP neurons; 1μM)?
Answer: evoked action potential discharges

Question: And the “Defb14-responsive neurons that responded to CQ” value (DRG neurons; cultured mouse DRG neurons, AAV9-GCaMP6f)?
Answer: 46/55

Question: And the “calcium response of DRG neurons” value (DRG neurons; dissociated mouse DRG neurons expressing GCaMP6f)?
Answer: induced calcium increases in DRG neurons

Question: What about the “Defb14 induced scratching in mast-cell deficient mice” value (mice; Mcpt5-Cre::Rosa-stop-DTA mice versus wild-type controls, 1mM, p=0.87) of the same molecule?
Answer: did not attenuate

Question: And the “scratching responses in mice with ablated Mrgpra3-neurons” value (mice; Mrgpra3-Cre::Rosa-stop-DTA mice (n=14) versus controls (n=12), 1mM, p=0.007)?
Answer: significantly attenuated

Question: And the “itch-responses (scratching bouts)” value (mice)?
Answer: evoked the most intense itch phenotype

Question: And the EC50 (Mrgpra3)?
Answer: 1 ± 0.18 µM

Question: And the EC50 (MRGPRX1)?
Answer: 0.61 ± 0.17 µM

Question: And the EC50 (Mrgpra1)?
Answer: 0.62 ± 0.16 µM

Question: Which EC50 (Mrgprb2) does the source give for “KKINNPVSCLRKGGRCWNRCIGNTRQIGSCGVPFLKCCKRK (disulfide 9-37, 16-30, 20-38) [Defb3]” here?
Answer: 11.5 ± 3.5 µM

Question: And the “itch-responses (scratching bouts)” value (mice)?
Answer: evoked a strong itch phenotype

Question: And the EC50 (Mrgpra1)?
Answer: 2.7 ± 0.6 µM
